Measured values reported in paper PMC10610505, “Synthesis and Biological Evaluation of Some New 3-Aryl-2-thioxo-2,3-dihydroquinazolin-4(1H)-ones and 3-Aryl-2-(benzylthio)quinazolin-4(3H)-ones as Antioxidants; COX-2, LDHA, α-Glucosidase and α-Amylase Inhibitors; and Anti-Colon Carcinoma and Apoptosis-Inducing Agents” (Pharmaceuticals, 2023).
Where two headings read alike, the source gives them in different places.

Key:
[1] = target: purified recombinant human LDHA protein (Homo sapiens, UniProt P00338); experiment: Lactate dehydrogenase A (LDHA) inhibitory assay; format: biochemical; conditions: for Fold change of LDHA inhibition as compared to 0.1 mg/mL: % inhibition at 0.200 mg/mL divided by % inhibition at 0.100 mg/mL; for inhibition at 100 µg/mL: at 0.1 mg/mL; for inhibition at 100 µg/mL / inhibition at 200 µg/mL: read-out: LDHA mean % inhibition ± SD; for inhibition at 200 µg/mL: at 0.2 mg/mL
Method: The LDHA inhibitory effectiveness was investigated by measuring the amounts of consumed NADH [73]. […] The fluorescence of NADH, which has an excitation wavelength of 340 nm and an emission wavelength of 460 nm, was detected using a spectrofluorometer. […] The LDHA inhibitory efficiency was expressed as an inhibition percentage, which was determined via a comparison with the negative control experiments.

[2] = Viability assay (LDH release), HUVEC; format: cell-based, human; conditions: human
Method: The samples were diluted in Dulbecco’s Modified Eagle’s Medium, consisting of 10% fetal bovine serum (FBS), added to cells grown and cultured for 24 h in a 5% CO2-humidified incubator at 37 °C. Thereafter, the activity of lactate dehydrogenase released from damaged cells was determined in the collected supernatant aliquots using an ELISA end-point assay (Benchmark Plus, Bio-Rad, CA, USA); 0.1% Triton X-100 in the assay medium and the assay medium only were used as the positive and negative controls, respectively. Cell viability was expressed as a relative percentage of the OD values (at 550 nm) for compound-treated cells (final concentration of 200 µg /mL) and the negative control, which was shown as the mean % ± SD (n = 3). The results of the viability assays for the potential cytotoxic candidates were compared with the % of viable human umbilical vein endothelial cells (HUVEC) at the same concentration. These cells were grown in Dulbecco’s Modified Eagle’s Medium (PAN-Biotech; Barcelona, Spain) containing 10% FBS (Sigma Aldrich; St. Quentin-Fallavier, France), 2 mM Glutamine (Sigma Aldrich), 100 units/mL penicillin and […] streptomycin (Life Technologies; Paisley, UK).

[3] = tested on: Bcl-2 gene; experiment: qRT-PCR expressional level of Bcl-2 gene; format: cell-based, human; conditions: 10 µg/mL, 24 h, HCT-116, vs negative control
Method: Considering these facts, enhancing apoptosis has been extensively studied as a potential drug target in cancer therapy, therefore, in this study, we investigated the effects of the most cytotoxic compounds, 3a and 3f, (at 10 µg/mL, 24 h incubation) on the expressional levels of these apoptotic regulator genes (Bax and Bcl-2) using quantitative reverse transcription–polymerase chain reactions (qRT-PCR).
Briefly, in a 25 mL flask (1 × 10^6 cells/flask), the human colon cancer cell lines (HCT-116 and LoVo) were grown for 24 h. After replacing the culture media with a medium containing 1% FBS for 24 h, the cells were treated with 10 µg/mL of each tested compound in 2 mL of fresh medium containing 1% FBS, or 0.25% DMSO, which was used as the negative control. The cells were adherent cells and they were detached using trypsin after being washed with ice-cold phosphate-buffered saline (PBS).
Primers specific for the Bax, Bcl-2 and Caspase-3 genes were designed using the primer blast (https://www.ncbi.nlm.nih.gov/tools/primer-blast/ accessed on 9 January 2023) software. The primers were used in the RT-qPCR analysis to amplify fragments of 100–200 bp in length (Table 11).
The RNeasy Mini Kit (Qiagen, Hilden, Germany) was used to extract the total RNA. The RNA purity, quality and quantity were checked using a Nanodrop 8000 spectrophotometer (Thermo Fisher Scientific, USA). […]

[4] = tested on: HCT-116 carcinoma cells; experiment: Annexin-V-FITC/PI flow cytometry, HCT-116; format: cell-based, human; conditions: 50 µg/mL, 48 h; for Early apoptotic cells (Annexin-V positive, PI negative): lower right quadrant; for Late apoptotic cells (Annexin-V and PI positive): upper right quadrant
Method: (§1) In order to examine the effect of compounds 3a and 3f on the apoptosis of HCT-116 and LoVo carcinoma cells, the Annexin-V-FITC probe was used and flow cytometry analyses were performed (Figure 7).
(§2) The percentages of the early apoptotic cells (Annexin-V positive and propidium iodide, PI negative) and late apoptotic cells (both Annexin-V and PI positive) were then calculated. Annexin V-PI staining was also performed to distinguish apoptotic and necrotic cell deaths.
(§3) The distribution of early and late apoptotic cells after treatment with compounds 3a and 3f was carried out using an Annexin V-FITC Apoptosis Detection Kit (BioVisionResearch Products—USA). HCT-116 and LoVo carcinoma cells were seeded in 60 mm^2 culture dishes and treated with the vehicles DMSO, and compounds 3a and 3f (50 µg/mL) for 48 h. Cells were then harvested, washed twice with PBS and resuspended in an Annexin-V binding buffer (BioVisionResearch Products—USA). Finally, the cells were stained with Annexin V-FITC and propidium iodide (PI). The fluorescent intensity of the stained cancer cells was determined using an FITC signal detector (usually FL1) and PI staining with the phycoerythrin emission signal detector (through quadrant statistics for necrotic and apoptotic cell populations).

[5] = tested on: LoVo carcinoma cells; experiment: Annexin-V-FITC/PI flow cytometry, LoVo; format: cell-based, human; conditions: 50 µg/mL, 48 h; for Early apoptotic cells (Annexin-V positive, PI negative): lower right quadrant; for Late apoptotic cells (Annexin-V and PI positive): upper right quadrant
Method: as §1, §2, §3

Compound | Fold change of LDHA inhibition as compared to 0.1 mg/mL [1] | inhibition at 100 µg/mL [1] | inhibition at 200 µg/mL [1] | IC50 ([1]; mean ± SD of three replicates) | viability at 200 µg/mL ([2]; human umbilical vein endothelial cells (HUVEC), 200 µg/mL, read-out: Mean % of viable cells ± SD, HUVEC) | Expressional level of anti-apoptotic gene Bcl-2 [3] | Early apoptotic cells (Annexin-V positive, PI negative) [4] | Late apoptotic cells (Annexin-V and PI positive) [4] | Early apoptotic cells (Annexin-V positive, PI negative) [5] | Late apoptotic cells (Annexin-V and PI positive) [5] | viability at 200 µg/mL [2]
O=c1c2cc(Cl)ccc2[nH]c(=S)n1-c1cccc(C(F)(F)F)c1 [Compound 3a, 6-Chloro-2-thioxo-3-(3-trifluoromethyl-phenyl)-2,3-dihydro-1H-quinazolin-4-one] | 1.84 fold | 53.5 ± 1.13% | 98.5 ± 1.34% | 273 µM | 97 ± 2.65% | 0.635 fold | 14.6% | 6.56% | 18.29% | 11.01% | –
O=c1c2cc(Cl)ccc2[nH]c(=S)n1-c1ccc([N+](=O)[O-])cc1 [Compound 3f, 6-Chloro-3-(4-nitro-phenyl)-2-thioxo-2,3-dihydro-1H-quinazolin-4-one] | 1.59 fold | 21.5 ± 1.56% | 34.2 ± 1.77% | – | – | 0.345 fold | 9.59% | 5.32% | 12.97% | 4.66% | 99.67 ± 0.577%
